Here are results for 3 compounds from US20260234157A1, “COMPOUND AND METHOD FOR TARGETED DEGRADATION OF ANDROGEN RECEPTOR” (Gan & Lee Pharmaceuticals Co., Ltd., priority 2023, published 2026).

Positions count from the first letter of the chain named. pIC50: −log10 of the molar value.

The first experiment concerns the target T1, AR protein (Homo sapiens, UniProt P10275, T878A).
T1 construct: degradation activity of the compounds disclosed in the present disclosure on AR protein in LNCaP cells; host or cells: LNCaP FGC
T1 sequence (P10275 1-920 T878A): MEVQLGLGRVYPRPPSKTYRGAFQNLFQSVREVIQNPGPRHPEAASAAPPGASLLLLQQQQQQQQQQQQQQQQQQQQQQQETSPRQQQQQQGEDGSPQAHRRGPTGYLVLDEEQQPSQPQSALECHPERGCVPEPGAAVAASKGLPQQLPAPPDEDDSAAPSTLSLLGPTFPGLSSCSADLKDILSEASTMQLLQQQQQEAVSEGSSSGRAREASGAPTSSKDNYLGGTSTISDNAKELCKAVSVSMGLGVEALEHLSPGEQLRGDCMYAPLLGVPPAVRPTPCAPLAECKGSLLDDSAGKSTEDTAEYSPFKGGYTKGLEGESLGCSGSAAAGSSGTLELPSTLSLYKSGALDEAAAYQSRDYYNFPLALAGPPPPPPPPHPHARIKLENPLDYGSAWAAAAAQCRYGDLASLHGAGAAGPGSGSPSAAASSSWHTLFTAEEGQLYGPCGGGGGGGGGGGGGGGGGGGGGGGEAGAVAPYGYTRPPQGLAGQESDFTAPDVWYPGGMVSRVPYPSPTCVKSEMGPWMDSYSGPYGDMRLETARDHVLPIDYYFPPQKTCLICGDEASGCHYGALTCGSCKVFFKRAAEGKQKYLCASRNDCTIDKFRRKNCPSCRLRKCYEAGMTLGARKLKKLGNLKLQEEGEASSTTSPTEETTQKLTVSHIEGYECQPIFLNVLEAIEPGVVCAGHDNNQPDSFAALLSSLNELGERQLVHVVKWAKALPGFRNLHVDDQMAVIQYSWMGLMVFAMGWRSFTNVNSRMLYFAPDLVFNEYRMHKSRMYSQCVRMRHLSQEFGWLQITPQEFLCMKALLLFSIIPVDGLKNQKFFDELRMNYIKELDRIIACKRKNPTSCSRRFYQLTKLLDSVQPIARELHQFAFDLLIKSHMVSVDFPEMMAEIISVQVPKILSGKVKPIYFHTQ
Nature of the experiment: Degradation of AR protein in LNCaP cells (Western blot). The format is cell-based. Particulars: LNCaP cells, compound 10 nM, 8 hours, Western blot grayscale, GAPDH internal reference; read-out: Degradation rates of the AR protein in LNCaP cells, 10 nM (%). In outline: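 Percent AR degradation was derived from GAPDH-normalised Western blot band intensities (infrared detection) in LNCaP lysates.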
In general terms: Immunoblotting shows a protein as a band on a membrane.
Consider `COc1cc(O[C@H]2C(C)(C)[C@H](NC(=O)c3ccc(N4CCC(C)(CN5CCC6(CC5)COc5cc7c(cc5C6)C(=O)N(C5CCC(=O)NC5=O)C7=O)CC4)cc3)C2(C)C)ccc1C#N` (stereo partly drawn) [Compound 289], for which the inhibition at 0.01 µM amounted to 27%.
As for `COc1cc(O[C@H]2C(C)(C)[C@H](NC(=O)c3ccc(N4CCC(C)(CN5CC6(CCc7ccc8c(c7O6)C(=O)N(C6CCC(=O)NC6=O)C8=O)C5)CC4)cc3)C2(C)C)ccc1C#N` (stereo partly drawn) [Compound 290], the inhibition at 0.01 µM is -14%.
Consider `COc1cc(O[C@H]2C(C)(C)[C@H](NC(=O)c3ccc(N4CCC(C)(CN5CC6(CCc7cc8c(cc7O6)C(=O)N(C6CCC(=O)NC6=O)C8=O)C5)CC4)cc3)C2(C)C)ccc1C#N` (stereo partly drawn) [Compound 291], for which the inhibition at 0.01 µM amounted to 9%.

The experiment is the same for the next values; noted with them: LNCaP cells, compound 100 nM, 8 hours, Western blot grayscale, GAPDH internal reference; read-out: Degradation rates of the AR protein in LNCaP cells, 100 nM (%).
With `COc1cc(O[C@H]2C(C)(C)[C@H](NC(=O)c3ccc(N4CCC(C)(CN5CCC6(CC5)COc5cc7c(cc5C6)C(=O)N(C5CCC(=O)NC5=O)C7=O)CC4)cc3)C2(C)C)ccc1C#N` (stereo partly drawn) [Compound 289], the inhibition at 0.1 µM amounted to 63%.
On the same count and under the same terms, as for `COc1cc(O[C@H]2C(C)(C)[C@H](NC(=O)c3ccc(N4CCC(C)(CN5CC6(CCc7ccc8c(c7O6)C(=O)N(C6CCC(=O)NC6=O)C8=O)C5)CC4)cc3)C2(C)C)ccc1C#N` (stereo partly drawn) [Compound 290], the figure is 18%; as for `COc1cc(O[C@H]2C(C)(C)[C@H](NC(=O)c3ccc(N4CCC(C)(CN5CC6(CCc7cc8c(cc7O6)C(=O)N(C6CCC(=O)NC6=O)C8=O)C5)CC4)cc3)C2(C)C)ccc1C#N` (stereo partly drawn) [Compound 291], 57%.

The target in another experiment is T2, AR protein (Homo sapiens, UniProt P10275).
T2 construct: degradation activity of the compounds disclosed in the present disclosure on AR protein in VCaP cells; host or cells: VCaP
T2 sequence (P10275 1-920): T1 sequence (P10275 1-920 T878A) with A878T
Kind of experiment: Degradation of AR protein in VCaP cells (Western blot). The format is cell-based. The conditions noted are these: compound at 10 nM, 8 hours, read-out: Degradation rate of the AR protein in VCaP cells, 10 nM (%). In outline: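 Western blot readout: AR band grayscale normalised to GAPDH, used to derive degradation rate. Lysates came from VCaP cells exposed to compound for 8 h, with solvent controls run in parallel.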
In the case of `COc1cc(O[C@H]2C(C)(C)[C@H](NC(=O)c3ccc(N4CCC(C)(CN5CCC6(CC5)COc5cc7c(cc5C6)C(=O)N(C5CCC(=O)NC5=O)C7=O)CC4)cc3)C2(C)C)ccc1C#N` (stereo partly drawn) [Compound 289], the inhibition at 0.01 µM was -21%.
Still for that read-out and setting: as for `COc1cc(O[C@H]2C(C)(C)[C@H](NC(=O)c3ccc(N4CCC(C)(CN5CC6(CCc7ccc8c(c7O6)C(=O)N(C6CCC(=O)NC6=O)C8=O)C5)CC4)cc3)C2(C)C)ccc1C#N` (stereo partly drawn) [Compound 290], the figure is -2%; as for `COc1cc(O[C@H]2C(C)(C)[C@H](NC(=O)c3ccc(N4CCC(C)(CN5CC6(CCc7cc8c(cc7O6)C(=O)N(C6CCC(=O)NC6=O)C8=O)C5)CC4)cc3)C2(C)C)ccc1C#N` (stereo partly drawn) [Compound 291], 21%.

Staying with this experiment, now noted: compound at 100 nM, 8 hours, read-out: Degradation rate of the AR protein in VCaP cells, 100 nM (%).
For the compound `COc1cc(O[C@H]2C(C)(C)[C@H](NC(=O)c3ccc(N4CCC(C)(CN5CCC6(CC5)COc5cc7c(cc5C6)C(=O)N(C5CCC(=O)NC5=O)C7=O)CC4)cc3)C2(C)C)ccc1C#N` (stereo partly drawn) [Compound 289], the inhibition at 0.1 µM was determined as 15%.
`COc1cc(O[C@H]2C(C)(C)[C@H](NC(=O)c3ccc(N4CCC(C)(CN5CC6(CCc7ccc8c(c7O6)C(=O)N(C6CCC(=O)NC6=O)C8=O)C5)CC4)cc3)C2(C)C)ccc1C#N` (stereo partly drawn) [Compound 290]: the inhibition at 0.1 µM turned out to be 6%.
Still for that read-out and setting: the result for `COc1cc(O[C@H]2C(C)(C)[C@H](NC(=O)c3ccc(N4CCC(C)(CN5CC6(CCc7cc8c(cc7O6)C(=O)N(C6CCC(=O)NC6=O)C8=O)C5)CC4)cc3)C2(C)C)ccc1C#N` (stereo partly drawn) [Compound 291] reads 53%.

The test system of another experiment is LNCaP FGC cells. Nature of the experiment: Inhibition of proliferation of LNCaP cells (WST-8). Particulars: Homo sapiens, LNCaP, 96 h, LNCaP FGC cells, 96 hours, WST-8 absorbance at 450 nm; read-out: IC50 for inhibiting the proliferation of LNCaP cells. The format is cell-based. Here is the method: The cells were cultured in a cell culture incubator with 5% CO2 at 37° C. overnight. […] On the sixth day, 96 well plates were taken out, and 20 μL of WST-8 (Beytime, C0040) reagent was added to each well.
Consider `COc1cc(O[C@H]2C(C)(C)[C@H](NC(=O)c3ccc(N4CCC(C)(CN5CCC6(CC5)COc5cc7c(cc5C6)C(=O)N(C5CCC(=O)NC5=O)C7=O)CC4)cc3)C2(C)C)ccc1C#N` (stereo partly drawn) [Compound 289], for which the pIC50 was 4.18.
The same measure, in the same setting: as for `COc1cc(O[C@H]2C(C)(C)[C@H](NC(=O)c3ccc(N4CCC(C)(CN5CC6(CCc7ccc8c(c7O6)C(=O)N(C6CCC(=O)NC6=O)C8=O)C5)CC4)cc3)C2(C)C)ccc1C#N` (stereo partly drawn) [Compound 290], the figure is 4.22; as for `COc1cc(O[C@H]2C(C)(C)[C@H](NC(=O)c3ccc(N4CCC(C)(CN5CC6(CCc7cc8c(cc7O6)C(=O)N(C6CCC(=O)NC6=O)C8=O)C5)CC4)cc3)C2(C)C)ccc1C#N` (stereo partly drawn) [Compound 291], 5.54.

Another experiment concerns VCaP cells. Nature of the experiment: Inhibition of proliferation of VCaP cells (WST-8). The format is cell-based. Particulars: Homo sapiens; VCaP cells, 168 hours, WST-8 absorbance at 450 nm; read-out: IC50 for inhibiting the proliferation of VCaP cells. In outline: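 Proliferation was read by WST-8 on day nine. Cells were VCaP FGC, seeded at 15000 cells per well in 10% FBS DMEM and kept at 37° C with 5% CO2.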
On the technique in general: Tetrazolium dyes change colour on reduction, which living cells bring about.
Regarding `COc1cc(O[C@H]2C(C)(C)[C@H](NC(=O)c3ccc(N4CCC(C)(CN5CCC6(CC5)COc5cc7c(cc5C6)C(=O)N(C5CCC(=O)NC5=O)C7=O)CC4)cc3)C2(C)C)ccc1C#N` (stereo partly drawn) [Compound 289], the pIC50 is 7.09.
Take `COc1cc(O[C@H]2C(C)(C)[C@H](NC(=O)c3ccc(N4CCC(C)(CN5CC6(CCc7ccc8c(c7O6)C(=O)N(C6CCC(=O)NC6=O)C8=O)C5)CC4)cc3)C2(C)C)ccc1C#N` (stereo partly drawn) [Compound 290]: the pIC50 is 5.03.
Still for that read-out and setting: as for `COc1cc(O[C@H]2C(C)(C)[C@H](NC(=O)c3ccc(N4CCC(C)(CN5CC6(CCc7cc8c(cc7O6)C(=O)N(C6CCC(=O)NC6=O)C8=O)C5)CC4)cc3)C2(C)C)ccc1C#N` (stereo partly drawn) [Compound 291], the figure is 7.33.
